These results are taken from ChEMBL document CHEMBL4680194, “Synthesis and biological evaluation of 1,2,4-triazole derivatives as potential neuroprotectant against ischemic brain injury” (Eur J Med Chem, 2020).

Molecules are shown by their SMILES. Calls of active or inactive are those of the source. No cut-off for these calls is given here.

Test [1] concerns PC-12. The experiment in a line: Cytoprotective activity against H2O2-induced cell death in rat PC-12 cells assessed as increase in cell viability at 10 uM incubated for 1 hr followed by H2O2 stimulation and measured after 5 hrs by MTT assay. The class given is functional. Conditions: time 6.0 hrs. On the technique in general: Formazan colour is commonly taken as a measure of viable cells.

Test [2] has as its system PC-12. Put plainly: Cytoprotective activity against SNP-induced cell death in rat PC-12 cells assessed as increase in cell viability at 10 uM incubated for 1 hr followed by SNP stimulation and measured after 24 hrs by MTT assay. The format is functional. The settings on record: time 25.0 hrs.
The nature of test [3]: Metal chelating activity of the compound assessed as Fe2+-compound complex formation incubated for 10 mins in presence of ferrozine by UV-visible spectrophotometry.
Test [4] concerns PC-12. Put plainly: Cytoprotective activity against SNP-induced cell death in rat PC-12 cells assessed as increase in cell viability incubated for 1 hr followed by SNP stimulation and measured after 24 hrs by LDH assay. The class given is functional, cell-based. The settings on record: time 25.0 hrs.
Test [5] deals with PC-12. The experiment in a line: Cytoprotective activity against H2O2-induced cell death in rat PC-12 cells assessed as increase in cell viability incubated for 1 hr followed by H2O2 stimulation and measured after 5 hrs by LDH assay. The class given is functional, cell-based. The settings on record: time 6.0 hrs.

On to `NS(=O)(=O)c1ccc(-n2nc(-c3ccc(C(F)(F)F)cc3O)nc2-c2ccc(C(F)(F)F)cc2O)cc1`, for which the result in the test on PC-12 [1] and with PC-12 [2] was inactive.
For orientation: IC50 means the concentration at which inhibition is half-maximal. Consider `NS(=O)(=O)c1ccc(-n2nc(-c3ccc([N+](=O)[O-])cc3O)nc2-c2ccccc2O)cc1`, for which the result in the test with PC-12 [1] and with PC-12 [2] was Active. Further, the IC50 in test [3] (read-out: IC50) amounted to 27.5 µM. Besides, the Activity entry in the test on PC-12 [4] and with PC-12 [5] was “Dose-dependent effect” throughout.
As for `NS(=O)(=O)c1ccc(-n2nc(-c3ccc(F)cc3O)nc2-c2ccc(F)cc2O)cc1`, the result in the test on PC-12 [1] and with PC-12 [2] was inactive.
In the case of `NS(=O)(=O)c1ccc(-n2nc(-c3ccc(C(F)(F)F)cc3O)nc2-c2ccccc2O)cc1`, the result in the test on PC-12 [1] and with PC-12 [2] was Active. Besides, the IC50 in test [3] (read-out: IC50) is 22.6 µM. Also, the Activity result in the test on PC-12 [4] and in the test on PC-12 [5] was “Dose-dependent effect” throughout.
Consider `NS(=O)(=O)c1ccc(-n2nc(-c3ccc([N+](=O)[O-])cc3)nc2-c2ccccc2O)cc1`, for which the outcome with PC-12 [1] and in the test on PC-12 [2] was inactive. Moreover, the 50% inhibitory concentration (IC50) entry in test [3] was “Not Active”.
For `NS(=O)(=O)c1ccc(-n2nc(-c3ccc(C(F)(F)F)cc3)nc2-c2ccccc2O)cc1`, the outcome in the test with PC-12 [1] and in the test on PC-12 [2] was inactive. The concentration for half-maximal inhibition (IC50) result in test [3] is recorded as “Not Active”.
Consider `NS(=O)(=O)c1ccc(-n2nc(-c3ccccc3O)nc2-c2ccccc2O)cc1`, for which the outcome in the test with PC-12 [1] and in the test on PC-12 [2] was Active. Further, the half-maximal inhibitory concentration (IC50) in test [3] (read-out: IC50) came to 42.9 µM. For the same compound, the Activity entry with PC-12 [4] and with PC-12 [5] was “Dose-dependent effect” throughout.
On to `NS(=O)(=O)c1ccc(-n2nc(-c3ccc(F)cc3O)nc2-c2ccccc2O)cc1`, for which the outcome in the test on PC-12 [1] and with PC-12 [2] was Active. Also, the half-maximal inhibitory concentration (IC50) in test [3] (read-out: IC50) worked out at 46.2 µM. Besides, the Activity result in the test with PC-12 [4] and in the test with PC-12 [5] was “Dose-dependent effect” in each case.
In the case of `Cc1ccc(-c2nc(-c3ccccc3O)n(-c3ccc(S(N)(=O)=O)cc3)n2)c(O)c1`, the result in the test with PC-12 [1] and in the test with PC-12 [2] was Active. Besides, the IC50 in test [3] (read-out: IC50) was 35.1 µM. In addition, the Activity entry in the test with PC-12 [4] and in the test on PC-12 [5] was “Dose-dependent effect” throughout.
For the compound `NS(=O)(=O)c1ccc(-n2nc(-c3ccc(F)cc3)nc2-c2ccccc2O)cc1`, the outcome with PC-12 [1] and in the test with PC-12 [2] was inactive. In test [3], the IC50 entry is given as “Not Active”.
With `NS(=O)(=O)c1ccc(-n2nc(-c3ccc(Cl)cc3O)nc2-c2ccccc2O)cc1`, the result in the test with PC-12 [1] and in the test with PC-12 [2] was Active. Also, the IC50 in test [3] (read-out: IC50) stood at 36 µM. Also, the Activity entry in the test with PC-12 [4] and in the test with PC-12 [5] was “Dose-dependent effect” throughout.
In the case of `NS(=O)(=O)c1ccc(-n2nc(-c3ccccc3)nc2-c2ccccc2O)cc1`, the result in the test on PC-12 [1] and in the test with PC-12 [2] was inactive. For the same compound, the half-inhibitory concentration (IC50) result in test [3] is listed as “Not Active”.
`Cc1ccc(-c2nc(-c3ccc(C)cc3O)n(-c3ccc(S(N)(=O)=O)cc3)n2)c(O)c1`: the result in the test with PC-12 [1] and with PC-12 [2] was inactive.
